Laboratory results: patent US20070203091A1, “Methods and therapeutic compositions for improving liver, blood flow and skeletal muscle functions in advanced diseases and aging” (priority 2006, published 2007)

Experiment: ATP pharmacokinetics: total blood (red blood cell) ATP level, Phase I study, 8 hour intravenous infusion
Format: in vivo, human
Procedure: The solution was administered by continuous intravenous infusions using an Ivac or similar infusion device through venous access in a peripheral vein. If venous access was a problem, either a Hickman catheter or its equivalent, or an Infusaport or its equivalent was inserted to provide vascular access.
The 50 μg/kg/min dose could be reduced to 25 μg/kg/min if adverse effects occurred. […] Succeeding infusions in that patient were at the infusion dose tolerated at the end of the previous treatment. If adverse events occurred in patients being infused at 25 μg/kg/min, the infusions were terminated and the patient received no additional infusions.

[1] = Week 1 (infusion 1), 4 hours into infusion
[2] = Week 1 (infusion 1), 8 hours (before the end)
[3] = Week 1 (infusion 1), 8.25 hours
[4] = Week 1 (infusion 1), Time 0 (pre-infusion)
[5] = Week 3 (Infusion 3), 4 hours into infusion
[6] = Week 3 (Infusion 3), 8 hours before the end
[7] = Week 3 (Infusion 3), Time 0 (pre-infusion)
[8] = Week 8 (infusion 8), 4 hours into infusion
[9] = Week 8 (infusion 8), 8 hours (before the end)
[10] = Week 8 (infusion 8), Time 0 (pre-infusion)

Nc1ncnc2c1ncn2[C@@H]1O[C@H](COP(=O)(O)OP(=O)(O)OP(=O)(O)O)[C@@H](O)[C@H]1O [ATP, adenosine 5′-triphosphate]
total blood (red blood cell) ATP levels (ATP continuously for eight hours): increases
ATP Level Mean [1]: 0.808 mM
ATP Level Median [1]: 0.745 mM
ATP Level Mean [2]: 0.896 mM
ATP Level Median [2]: 0.770 mM
ATP Level Mean [3]: 0.860 mM
ATP Level Median [3]: 0.860 mM
ATP Level Mean (Week 1 (infusion 1), 9 hours): 0.912 mM
ATP Level Median (Week 1 (infusion 1), 9 hours): 0.765 mM
ATP Level Mean (Week 1 (infusion 1), 10 hours): 0.826 mM
ATP Level Median (Week 1 (infusion 1), 10 hours): 0.735 mM
ATP Level Mean (Week 1 (infusion 1), 11 hours): 0.828 mM
ATP Level Median (Week 1 (infusion 1), 11 hours): 0.680 mM
ATP Level Mean (Week 1 (infusion 1), 12 hours): 0.845 mM
ATP Level Median (Week 1 (infusion 1), 12 hours): 0.690 mM
ATP Level Mean (Week 1 (infusion 1), 14 hours): 0.857 mM
ATP Level Median (Week 1 (infusion 1), 14 hours): 0.730 mM
ATP Level Mean (Week 1 (infusion 1), 16 hours): 0.905 mM
ATP Level Median (Week 1 (infusion 1), 16 hours): 0.755 mM
ATP Level Mean (Week 1 (infusion 1), 20 hours): 0.772 mM
ATP Level Median (Week 1 (infusion 1), 20 hours): 0.670 mM
ATP Level Mean (Week 1 (infusion 1), 24 hours): 0.715 mM
ATP Level Median (Week 1 (infusion 1), 24 hours): 0.620 mM
ATP Level Mean [4]: 0.615 mM
ATP Level Median [4]: 0.550 mM
ATP Level Mean (Week 1 (infusion 1), […]): 0.895 mM
ATP Level Median (Week 1 (infusion 1), […]): 0.810 mM
ATP Level Mean [5]: 0.843 mM
ATP Level Median [5]: 0.540 mM
ATP Level Mean [6]: 0.955 mM
ATP Level Median [6]: 0.770 mM
ATP Level Mean (Week 3 (Infusion 3), 9 hours): 0.908 mM
ATP Level Median (Week 3 (Infusion 3), 9 hours): 0.950 mM
ATP Level Mean (Week 3 (Infusion 3), 10 hours): 0.906 mM
ATP Level Median (Week 3 (Infusion 3), 10 hours): 1.000 mM
ATP Level Mean (Week 3 (Infusion 3), 11 hours): 0.885 mM
ATP Level Median (Week 3 (Infusion 3), 11 hours): 0.670 mM
ATP Level Mean (Week 3 (Infusion 3), 12 hours): 0.903 mM
ATP Level Median (Week 3 (Infusion 3), 12 hours): 0.820 mM
ATP Level Mean (Week 3 (Infusion 3), 14 hours): 0.853 mM
ATP Level Median (Week 3 (Infusion 3), 14 hours): 0.600 mM
ATP Level Mean (Week 3 (Infusion 3), 16 hours): 0.859 mM
ATP Level Median (Week 3 (Infusion 3), 16 hours): 0.740 mM
ATP Level Mean (Week 3 (Infusion 3), 20 hours): 0.851 mM
ATP Level Median (Week 3 (Infusion 3), 20 hours): 0.610 mM
ATP Level Mean (Week 3 (Infusion 3), 24 hours): 0.687 mM
ATP Level Median (Week 3 (Infusion 3), 24 hours): 0.580 mM
ATP Level Mean [7]: 0.610 mM
ATP Level Median [7]: 0.560 mM
ATP Level Mean (Week 3 (Infusion 3), […]): 0.989 mM
ATP Level Median (Week 3 (Infusion 3), […]): 0.960 mM
ATP Level Mean [8]: 0.702 mM
ATP Level Median [8]: 0.770 mM
ATP Level Mean [9]: 0.826 mM
ATP Level Median [9]: 0.890 mM
ATP Level Mean (Week 8 (infusion 8), 9 hours): 1.030 mM
ATP Level Median (Week 8 (infusion 8), 9 hours): 1.155 mM
ATP Level Mean (Week 8 (infusion 8), 10 hours): 0.963 mM
ATP Level Median (Week 8 (infusion 8), 10 hours): 1.080 mM
ATP Level Mean (Week 8 (infusion 8), 11 hours): 0.973 mM
ATP Level Median (Week 8 (infusion 8), 11 hours): 1.010 mM
ATP Level Mean (Week 8 (infusion 8), 12 hours): 0.925 mM
ATP Level Median (Week 8 (infusion 8), 12 hours): 1.050 mM
ATP Level Mean (Week 8 (infusion 8), 14 hours): 0.980 mM
ATP Level Median (Week 8 (infusion 8), 14 hours): 0.950 mM
ATP Level Mean (Week 8 (infusion 8), 16 hours): 0.894 mM
ATP Level Median (Week 8 (infusion 8), 16 hours): 0.700 mM
ATP Level Mean (Week 8 (infusion 8), 20 hours): 0.960 mM
ATP Level Median (Week 8 (infusion 8), 20 hours): 0.900 mM
ATP Level Mean (Week 8 (infusion 8), 24 hours): 0.708 mM
ATP Level Median (Week 8 (infusion 8), 24 hours): 0.750 mM
ATP Level Mean [10]: 0.573 mM
ATP Level Median [10]: 0.560 mM
ATP Level Mean (Week 8 (infusion 8), […]): 1.000 mM
ATP Level Median (Week 8 (infusion 8), […]): 0.980 mM
Increases in total blood ATP pools (patients 502-505, weeks 1, 3 and 8, time 0 to 8 hours (end of the infusions)): 70-90%
